Test [1] concerns T.b. brucei, T.b. gambiense and T.b. rhodesiense. Kind of test: African trypanosomiasis mouse model, in-vivo. The procedure: Primary screening for new trypanocides has made extensive use of rodent systems, in which host survival time is a simple indicator of drug activity. In-vitro screens have used a variety of trypomastigote types (see Table 3, below). […] Most early in-vitro screens employed a short test in which bloodstream trypomastigotes were isolated from an infected rodent and maintained for up to 24 h in a simple drug-containing media. Two significant modifications of this technique include maintaining isolated bloodstream trypomastigotes in drug-containing media for 3-4 hours at 37° C in micro-titre plates and their subsequent viability assessed by the uptake of radiolabelled precursors or motility and infectivity to mice.
(§1) In-vitro and in-vivo models were used to test activities of a selection of many compounds. Those activities are summarized in Tables 1-3, showing variation between systems and species. Activities measured in the MP mo and HM mo models have shown the best correlation with results obtained in hamster and mouse models.

The test system of test [2] is L donovani. Kind of test: Amastigotes (AM) in mouse or human macrophages (mos), in-vitro. Format: cell-based. As to conditions: Ld., Amastigote.
Description: (§2) Amastigotes of Leishmania can be cultivated in a wide range of mammalian cells, some of which may be used in in-vitro screens. These include (1) a Sticker dog sarcoma (fibroblast) cell line, (2) transformed rodent macrophage cell lines, (3) primary isolated mouse peritoneal macrophages (MP mo), and (4) human monocyte-derived macrophages (HM mo). The methods are similar for all models. Amastigote or promastigote infected cells are maintained in a medium containing the drug for 4-7 days, at 37 C for L. donovani and 33-35 C for L. major and L. mexicana. Drug activity is then assessed by counting (I) the number of infected host cells and/or (II) the number of amastigotes/100 host cells.
as §1

Test [3] concerns L major/L mexicana. The test is described as above. It is filed as cell-based. The following applies: Lm., Amastigote.
Description: as §2, §1

In test [4] the test system is herpes simplex type 1 (HSV-1). Kind of test: M413 cells, HSV-1. The following applies: M413 cell line of human fibroblasts. Format: cell-based. How it is done: A procedure similar to that described for Experiment la(g) was followed except herpes simplex virus- type I (HSV-I) was used.
The experiments were performed in duplicate M413 cells which were set up in Titer-Tek slides (4 well, glass) and those that were confluent within one day were used in experiments. Within 24-48 hours, cell densities were checked to ensure sufficiency to proceed with infection. Stock HSV-1 was serially diluted in 10-fold steps (1, 10^-1, 10-^2, 10-^3, 10-^4) to provide 2 ml of each dilution: 0.2/1.8 ml diluent to finally yield overall dilutions of approximately 10^-1, 10^-2, 10-^3, 10^-4, 10-^5. Virus absorption was allowed for 90 minutes at 37 °C, after which time the inoculum was removed and replaced with solutions containing IPA at the concentrations as indicated in Table la(j). The slide was incubated for 3 days and stained with the following antisera: monoclonal antibody (MAB) to HSV-1 virus capsid antigen (VCA) at 1:20; control mores IgG at 1:20.

The nature of test [5]: Case study: AIDS patient with hairy leukoplakia, IPA oral fluid dose or mouth wash. Format: in vivo, human. From the text:
When the indication reappeared, following a period of time (several days), the administration of the compound gave further relief.

Test [6] relates to CAEV. In words: Experiment la(c): Himalayan Tahr ovary cells, CAEV, p28 radioimmunoassay. It is filed as cell-based, caprine arthritis encephalitis virus (CAEV). The following applies: as read from Figure 15. From the text:
A procedure similar to that followed in Experiment la (a) was followed using Himalayan Tahr ovary cells exposed to caprine arthritis encephalitis virus (CAEV), a lentivirus related to HIV-1 which causes leukoen- cephalitis and arthritis in goats. A radioimmunoassay to detect CAEV p28 was used to determine the presence of the virus.

Test [7] concerns T. cruzi. In words: T. cruzi mouse model, in-vivo.
Description: as §1

Structures are written as SMILES.

In general, IC50 refers to the concentration that gives 50% inhibition. The low end stands for greater potency in that assay, the high end for weaker potency in that assay. Broadly, the IC90 is the concentration at which the effect reaches the 90% level. A low value points to greater potency.

For the compound `CC(C)=CCNc1ncnc2c1ncn2[C@@H]1O[C@H](CO)[C@@H](O)[C@H]1O` [IPA, N^6-(Δ^2-isopentenyl) adenosine], the “activity, mouse model” value is given as “+ +” in test [1], “+” in test [7] (T. cruzi strain Sonya) and “++” in test [7] (T. cruzi strain Y). Besides, the “Activity, AM in mouse or human mos” value in test [2] and in test [3] was “+ +” throughout. In addition, the “in-vitro levels of herpes simplex type 1 (HSV-1)” value in test [4] is listed as “reduces”. In addition, the “relief of hairy leukoplakia” value in test [5] is given as “complete relief”. The “time to relief of the indication” value in test [5] is listed as “within seven days”. The compound further registered an IC50 in test [6] of 8 µM. For the same compound, in test [6], the 90% effect level (IC90) was put at 30 µM.

Source of the values: patent publication EP0462621A2, “Use of particular compounds for manufacture of pharmaceutical formulations for treatment against various parasites, mycoplasmas, other indications and other infections” (Prendergast, Patrick Thomas, priority 1990, dated 1991).
